Laboratory results as given in ChEMBL document CHEMBL4483862, “Open-source discovery of chemical leads for next-generation chemoprotective antimalarials” (2018).

Tested on: Plasmodium berghei
Assay: Luciferase/luciferin-expressing antifolate-resistant parasites were used to infect a culture of HepG2 cells that were pre-incubated with compounds. Infected hepatocytes emit light due to the luciferase reaction. Assay results are presented as the percent inhibition of light emission compared to control. […]
Type: functional
Settings: sporozoite; for IC90: read-out: LUCIFERASE INFECTION ASSAY - IC90
[1] = read-out: LUCIFERASE INFECTION ASSAY - IC50

| SMILES | IC90 [µM] | IC50 [1] [µM] | further results |
| --- | --- | --- | --- |
| O=C1C(=O)N(Cc2ccccc2F)c2c1cccc2C(F)(F)F | > 10.2 | – | IC50 (FFLUC_HILL_SLOPE 1.03, FFLUC_R_SQUARED 0.0461, HEPG2TOX_HILL_SLOPE 15.2, HEPG2TOX_R_SQUARED 0.946, PBLUC_HILL_SLOPE 1.65, PBLUC_R_SQUARED 0.631, read-out: LUCIFERASE INFECTION ASSAY - IC50): 2.98 µM |
| COc1ccc(Nc2nc(NCC3CC3)nc3cc(-c4ccccc4)sc23)cc1OC | > 7.63 | – | IC50 (HEPG2TOX_HILL_SLOPE 1.76, HEPG2TOX_R_SQUARED 0.98, PBLUC_HILL_SLOPE 10.6, PBLUC_R_SQUARED 0.159, read-out: LUCIFERASE INFECTION ASSAY - IC50): 6.32 µM |
| CCn1c2ccccc2c2cc(NC(=O)COC(=O)CCNS(=O)(=O)c3cccc(C)c3)ccc21 | > 10 | – | IC50 (FFLUC_HILL_SLOPE 22.4, FFLUC_R_SQUARED 0.497, HEPG2TOX_HILL_SLOPE 9.12, HEPG2TOX_R_SQUARED 0.733, read-out: LUCIFERASE INFECTION ASSAY - IC50): > 10 µM |
| Cc1cccc(NC(=O)CNC(=O)c2ccc3c(c2)C(=O)N(C)C3=O)c1C | > 10 | > 10 | – |
| Cc1nc2cc3c(cc2n1CC(=O)N1CCN(c2ccccc2)CC1)OCCO3 | > 10 | > 10 | – |
| CN(c1ccccc1)S(=O)(=O)c1ccc(C(=O)Nc2nc(-c3cc(Cl)sc3Cl)cs2)cc1 | 8.48 | – | IC50 (FFLUC_HILL_SLOPE 19.7, FFLUC_R_SQUARED 0.521, HEPG2TOX_HILL_SLOPE 3.83, HEPG2TOX_R_SQUARED 0.989, PBLUC_HILL_SLOPE 4.8, PBLUC_R_SQUARED 0.68, read-out: LUCIFERASE INFECTION ASSAY - IC50): 5.36 µM |
| Cc1ccc(C)c(OCCCN2C(=O)NC(Cc3c[nH]c4ccccc34)C2=O)c1 (stereo not given) | > 10 | > 10 | – |
| COc1cccc(-c2cc(=O)n(-c3ccc(F)cc3)[nH]2)c1 | > 11.6 | > 11.6 | – |
| O=C(CSc1nc2sc3c(c2c(=O)n1-c1cccc(C(F)(F)F)c1)CCCC3)NC12CC3CC(CC(C3)C1)C2 | 7.89 | – | IC50 (PBLUC_HILL_SLOPE 5.84, PBLUC_R_SQUARED 0.777, read-out: LUCIFERASE INFECTION ASSAY - IC50): 5.41 µM |
| Cc1[nH]c2ccccc2c1Sc1ccc(Cl)cc1 | > 12.1 | > 12.1 | – |
| CSc1sc(C(=O)N/N=C/c2ccc(Cl)cc2)cc1S(=O)(=O)C(C)C | 5.75 | – | IC50 (HEPG2TOX_HILL_SLOPE 1.17, HEPG2TOX_R_SQUARED 0.979, PBLUC_HILL_SLOPE 3, PBLUC_R_SQUARED 0.696, read-out: LUCIFERASE INFECTION ASSAY - IC50): 2.77 µM |
| c1csc(SCc2ccc3nonc3c2)c1 | > 13.3 | – | IC50 (PBLUC_HILL_SLOPE 1.33, PBLUC_R_SQUARED 0.35, read-out: LUCIFERASE INFECTION ASSAY - IC50): > 13.3 µM |
| CNC(=O)c1ccc(CN(C2CC2)S(=O)(=O)c2cc([N+](=O)[O-])cc(C)c2C)cc1 | > 10 | – | IC50 (FFLUC_HILL_SLOPE 3.59, FFLUC_R_SQUARED 0.192, PBLUC_HILL_SLOPE 1.6, PBLUC_R_SQUARED 0.527, read-out: LUCIFERASE INFECTION ASSAY - IC50): 5.04 µM |
| CCOC(=O)c1sc2nc(C)nc(N(C)Cc3ccccc3)c2c1C | > 10 | – | IC50 (PBLUC_HILL_SLOPE 1.75, PBLUC_R_SQUARED 0.422, read-out: LUCIFERASE INFECTION ASSAY - IC50): 7.96 µM |
| CCC(C)NC(=O)c1c(NC(=O)c2cc(F)c(F)cc2F)nc2ccc(C)cn12 (stereo not given) | 1.1 | 0.917 | – |
| CC(=O)c1cc2c(cc1NC(=O)c1cccc(S(=O)(=O)N3c4ccccc4CC3C)c1)OCO2 (stereo not given) | > 10 | > 10 | – |
| C=C1CC2(C)C(=CC1=O)CCC1C2CCC2(C)C(O)CCC12 (stereo not given) | 5.89 | – | IC50 (HEPG2TOX_HILL_SLOPE 3.95, HEPG2TOX_R_SQUARED 0.554, PBLUC_HILL_SLOPE 10.4, PBLUC_R_SQUARED 0.356, read-out: LUCIFERASE INFECTION ASSAY - IC50): 4.77 µM |
| Cc1cc(/C=C(\C#N)c2nc3ccccc3[nH]2)c(C)n1-c1cc(C(F)(F)F)ccc1Cl | 5.02 | – | IC50 (HEPG2TOX_HILL_SLOPE 9.28, HEPG2TOX_R_SQUARED 0.884, PBLUC_HILL_SLOPE 1.82, PBLUC_R_SQUARED 0.761, read-out: LUCIFERASE INFECTION ASSAY - IC50): 1.5 µM |
| COc1ccc(CCN2C(=O)C=CC2=O)cc1OC | 5.29 | – | IC50 (FFLUC_HILL_SLOPE 0.51, FFLUC_R_SQUARED 0.0256, HEPG2TOX_HILL_SLOPE 14.8, HEPG2TOX_R_SQUARED 0.93, PBLUC_HILL_SLOPE 12.3, PBLUC_R_SQUARED 0.48, read-out: LUCIFERASE INFECTION ASSAY - IC50): 4.42 µM |
| Cn1c(N)c(C(=O)COC(=O)c2ccccc2NCCC2=CCCCC2)c(=O)n(C)c1=O | > 10 | > 10 | – |

| SMILES | IC90 [µM] | IC50 [1] [µM] | further results |
| --- | --- | --- | --- |
| Cc1ccc(-c2nn(-c3ccccc3)cc2CN(C)C(=O)CCNC(=O)c2ccco2)cc1C | > 10 | – | IC50 (PBLUC_HILL_SLOPE 3, PBLUC_R_SQUARED 0.508, read-out: LUCIFERASE INFECTION ASSAY - IC50): 5.91 µM |
| O=C(NCCCn1cnc2ccccc21)c1ccc(Oc2ccc(F)cc2)cc1 | > 10 | – | IC50 (HEPG2TOX_HILL_SLOPE 1.27, HEPG2TOX_R_SQUARED 0.899, PBLUC_HILL_SLOPE 1.4, PBLUC_R_SQUARED 0.524, read-out: LUCIFERASE INFECTION ASSAY - IC50): 5.3 µM |
| Cc1nc2ccccn2c1C(=O)NCc1cccc(OC(F)(F)F)c1 | > 9.45 | – | IC50 (PBLUC_HILL_SLOPE 18.2, PBLUC_R_SQUARED 0.0314, read-out: LUCIFERASE INFECTION ASSAY - IC50): 8.72 µM |
| CCn1c2ccccc2c2cc(NC(=O)CN3CCN(Cc4ccc5c(c4)OCO5)CC3)ccc21 | > 10 | – | IC50 (PBLUC_HILL_SLOPE 2.07, PBLUC_R_SQUARED 0.0912, read-out: LUCIFERASE INFECTION ASSAY - IC50): 8.08 µM |
| CCCCN(Cc1nc(=O)c2ccccc2[nH]1)C(=O)c1cc2c(F)cccc2s1 | > 10 | – | IC50 (HEPG2TOX_HILL_SLOPE 1.1, HEPG2TOX_R_SQUARED 0.0883, read-out: LUCIFERASE INFECTION ASSAY - IC50): > 10 µM |
| NS(=O)(=O)c1ccc(CCNC(=O)COc2ccccc2Cc2ccccc2)cc1 | 9.31 | – | IC50 (PBLUC_HILL_SLOPE 4.18, PBLUC_R_SQUARED 0.0848, read-out: LUCIFERASE INFECTION ASSAY - IC50): 5.51 µM |
| C=S(=O)(NC(=O)CSc1ccc(Cl)cc1)c1ccc(C)cc1 (stereo not given) | > 9.32 | > 9.32 | – |
| Cc1cccc(-n2cc(-c3ccccc3)c3c(N4CCN(C)CC4)ncnc32)c1 | > 10 | – | IC50 (HEPG2TOX_HILL_SLOPE 7.66, HEPG2TOX_R_SQUARED 0.38, PBLUC_HILL_SLOPE 2.7, PBLUC_R_SQUARED 0.572, read-out: LUCIFERASE INFECTION ASSAY - IC50): 6.64 µM |
| Brc1ccc(CNc2ccc3ncccc3c2)cc1 | > 10.5 | > 10.5 | – |
| COc1ccc(OC)c(CCNc2nc3cnc(-c4cncnc4)cc3n2C)c1 | > 10 | – | IC50 (HEPG2TOX_HILL_SLOPE 2.17, HEPG2TOX_R_SQUARED 0.775, PBLUC_HILL_SLOPE 2.72, PBLUC_R_SQUARED 0.417, read-out: LUCIFERASE INFECTION ASSAY - IC50): 4.95 µM |
| N#CCCN(C(=O)CSc1nc2cc(S(=O)(=O)Nc3ccc(Cl)cc3)ccc2o1)c1ccccc1 | 7.89 | – | IC50 (PBLUC_HILL_SLOPE 1.44, PBLUC_R_SQUARED 0.751, read-out: LUCIFERASE INFECTION ASSAY - IC50): 1.72 µM |
| Cn1ccc2cc(-c3cnc4cnc(-c5ccc(N)nc5)cn34)ccc21 | 5.78 | – | IC50 (HEPG2TOX_HILL_SLOPE 1.74, HEPG2TOX_R_SQUARED 0.96, PBLUC_HILL_SLOPE 2.26, PBLUC_R_SQUARED 0.858, read-out: LUCIFERASE INFECTION ASSAY - IC50): 2.18 µM |
| Cc1ccc(NC(=O)Cc2csc(NC(=O)C3CC3)n2)cc1Cl | > 10 | – | IC50 (FFLUC_HILL_SLOPE 0.917, FFLUC_R_SQUARED 0.0768, HEPG2TOX_HILL_SLOPE 0.677, HEPG2TOX_R_SQUARED 0.444, PBLUC_HILL_SLOPE 1.82, PBLUC_R_SQUARED 0.301, read-out: LUCIFERASE INFECTION ASSAY - IC50): > 10 µM |
| Cn1nc(-c2ccc(/C=N/NC(=O)c3ccc(Cl)cc3Cl)s2)cc1C(F)(F)F | > 7.38 | > 7.38 | – |
| O=C(Nc1ccc(-c2nc3ccccc3[nH]2)cc1)c1ccc2c(=O)n3c(nc2c1)CCCCCC3 | 4.15 | – | IC50 (HEPG2TOX_HILL_SLOPE 11.2, HEPG2TOX_R_SQUARED 0.937, PBLUC_HILL_SLOPE 12.6, PBLUC_R_SQUARED 0.815, read-out: LUCIFERASE INFECTION ASSAY - IC50): 3.48 µM |
| Cc1[nH]c(=S)c(C#N)c2c1C1(C)CCC3C(CC=C4CC(O)CCC43C)C1C2 (stereo not given) | > 10 | > 10 | – |
| Nc1nc(CSc2nccc(C(F)(F)F)n2)nc(Nc2ccc(F)cc2)n1 | > 10 | > 10 | – |
| CN(CCOc1ccc(Br)cc1)C(=O)c1[nH]nc2ccccc12 | > 10 | – | IC50 (PBLUC_HILL_SLOPE 4.37, PBLUC_R_SQUARED 0.302, read-out: LUCIFERASE INFECTION ASSAY - IC50): 6.76 µM |
| Cc1[nH]c2ccccc2c1/C=N/n1c(-c2ccc(Cl)cc2Cl)cs/c1=N\CC1CCCO1 (stereo not given) | 6.77 | – | IC50 (FFLUC_HILL_SLOPE 15.4, FFLUC_R_SQUARED 0.637, HEPG2TOX_HILL_SLOPE 0.309, HEPG2TOX_R_SQUARED 0.658, PBLUC_HILL_SLOPE 1.1, PBLUC_R_SQUARED 0.559, read-out: LUCIFERASE INFECTION ASSAY - IC50): 0.923 µM |
| Fc1ccc2c(c1)/C(=N\Nc1nc3ccccc3[nH]1)CCS2 | > 10 | – | IC50 (HEPG2TOX_HILL_SLOPE 6.62, HEPG2TOX_R_SQUARED 0.538, PBLUC_HILL_SLOPE 9.53, PBLUC_R_SQUARED 0.0234, read-out: LUCIFERASE INFECTION ASSAY - IC50): 8.49 µM |
